# Source: PubChem BioAssay (NCI)
#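 Compound exposure: 48 hours, 5 concentrations, 96-well plates. GI50: concentration for 50% inhibition of growth. TGI is the concentration that stops growth completely.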 Active and inactive are the calls of the source. No stated cut-off is given here; in the data, active means GI50 below about 0.43 µM; inactive means the rest.
# How the values were obtained:
# Assay in all cases: NCI-60 cell line screen, 48 h
# SK-MEL-5 melanoma = test system: SK-MEL-5 melanoma
# HOP-92 NSCLC = test system: HOP-92 NSCLC
# CCRF-CEM leukemia = test system: CCRF-CEM leukemia
# UACC-62 melanoma = test system: UACC-62 melanoma
# HT29 colon = test system: HT29 colon
# EKVX NSCLC = test system: EKVX NSCLC
# SNB-19 CNS = test system: SNB-19 CNS
SMILES,TGI (SK-MEL-5 melanoma),TGI (HOP-92 NSCLC),TGI (CCRF-CEM leukemia),TGI (UACC-62 melanoma),TGI (HT29 colon),TGI (EKVX NSCLC),TGI (SNB-19 CNS),GI50 (SK-MEL-5 melanoma),GI50 (HOP-92 NSCLC),GI50 (CCRF-CEM leukemia),GI50 (UACC-62 melanoma),GI50 (HT29 colon),GI50 (EKVX NSCLC),GI50 (SNB-19 CNS),outcome (HOP-92 NSCLC),outcome (CCRF-CEM leukemia),outcome (UACC-62 melanoma),outcome (EKVX NSCLC),outcome (SNB-19 CNS)
Cc1ccc(C#CS(=O)(=O)C(F)(F)F)cc1,> 100 µM,> 100 µM,> 100 µM,> 100 µM,> 100 µM,> 100 µM,> 100 µM,,,,,,,,,,,,
NCCS(=O)(=O)O,> 100 µM,> 100 µM,> 100 µM,,> 100 µM,> 100 µM,> 100 µM,,,,,,,,,,,,
CC(=O)c1[nH]c(Nc2ccc(C)cc2)c(C(=S)Nc2ccccc2)c1N,31 µM,35.9 µM,62.1 µM,31.7 µM,> 100 µM,96.7 µM,42.9 µM,,,,,,,,,,,,
O=Cc1c(Br)[nH]c2ccccc12,> 100 µM,> 100 µM,> 100 µM,> 100 µM,> 100 µM,> 100 µM,,,,,,,,,,,,,
O=C(c1ccccc1O)c1cc(-c2ncc3c(=O)c4ccccc4oc3n2)c(-c2ccccc2O)[nH]c1=O,25.8 µM,52 µM,69.3 µM,51.4 µM,77.6 µM,> 92 µM,> 87.5 µM,,,,,,,,,,,,
N#Cc1ccc(C2Oc3ccc(Cl)cc3C=C2[N+](=O)[O-])cc1 (stereo not drawn),2.68 µM,2.83 µM,1.03 µM,3.09 µM,7.89 µM,3.42 µM,6.58 µM,,,,,,,,,,,,
O=C(Nc1ccc(Sc2ccc(N=Nc3c(O)c(S(=O)(=O)O)cc4cc(S(=O)(=O)O)ccc34)cc2)cc1)c1ccc(N=Nc2c(O)c(S(=O)(=O)O)cc3cc(S(=O)(=O)O)ccc23)cc1,53.9 µM,92.4 µM,64.3 µM,62 µM,> 100 µM,> 100 µM,> 100 µM,,,,,,,,,,,,
C[N+]1([O-])[C@H]2CC(OC(=O)[C@H](CO)c3ccccc3)C[C@H]1[C@H]1O[C@H]12 (stereo partly drawn),> 100 µM,,> 100 µM,> 100 µM,> 100 µM,> 100 µM,> 100 µM,,,,,,,,,,,,
COc1ccc([C@H]2c3cc4c(cc3OC(O)(CO)[C@H]2C(=O)O)OCO4)c(OC)c1 (stereo partly drawn) (tested in a mixture with another compound),> 100 µM,> 100 µM,> 100 µM,> 100 µM,> 100 µM,> 100 µM,> 100 µM,,,,,,,,,,,,
CCOC(=O)C1=C(c2ccccc2)C12N(Cc1ccccc1)C(=O)C2(c1ccccc1)c1ccccc1 (stereo not drawn),,87.5 µM,> 100 µM,> 100 µM,> 100 µM,> 100 µM,> 100 µM,,,,,,,,,,,,
O=NN1C(c2ccccc2)CCCC1c1ccccc1 (stereo not drawn),> 100 µM,> 96.1 µM,> 100 µM,> 100 µM,> 54.8 µM,99.1 µM,> 100 µM,,,,,,,,,,,,
COc1cc(/C(=C2/O[C@@H]([C@H]3COC(C)(C)O3)[C@H]3OC(C)(C)O[C@@H]23)c2ccc3c(c2)OCO3)cc(OC)c1OC,> 25 µM,> 25 µM,> 25 µM,> 25 µM,> 25 µM,> 25 µM,> 25 µM,13 µM,> 25 µM,> 25 µM,> 25 µM,> 25 µM,> 25 µM,> 25 µM,,,,,
O=P(O)(O)CN1CCNCCN(CP(=O)(O)O)CCN(CP(=O)(O)O)CCNCC1,,,,,,,,,,,,49000 µM,,,inactive,inactive,inactive,inactive,inactive
O=C1c2cc3c(cc2CC1Cc1ccc2c(c1)CCC2)CCC3 (stereo not drawn),> 100 µM,,> 100 µM,> 100 µM,> 100 µM,> 100 µM,> 100 µM,,,,,,,,,,,,
O=C(c1ccccc1)c1c(C(F)(F)F)n([O-])c2cc(F)c(F)cc2[n+]1=O,3.33 µM,0.324 µM,> 100 µM,5.08 µM,> 100 µM,5 µM,10.8 µM,,,8.72 µM,,,,,,,,,
O=C(CSCC(=O)N/N=C\c1ccccc1F)N/N=C\c1ccccc1F,> 100 µM,> 100 µM,> 100 µM,> 100 µM,> 100 µM,> 100 µM,> 100 µM,,,,,,,,,,,,
CCCCOc1ccc2c(c1)CC[C@@H]1[C@@H]2CC[C@]2(C)C(=O)N(CCCC)C(=O)C[C@@H]12,> 100 µM,> 100 µM,> 100 µM,> 100 µM,> 100 µM,,> 100 µM,,,,,,,,,,,,
COc1cc(-c2nc3cc(Cl)c(Cl)cc3[nH]2)ccc1OCC(=O)N=Nc1c(O)[nH]c2ccc(Cl)cc12,,,5.27 µM,2.54 µM,,> 100 µM,3.33 µM,,,0.28 µM,1.2 µM,,1.7 µM,0.447 µM,,,,,
